Measurements taken from patent US7723329B2, “Substituted-3-sulfonylindazole derivatives as 5-hydroxytryptamine-6 ligands” (Wyeth LLC, priority 2005, dated 2010).

How the values were obtained:
[1] = molecular target: T1, human cloned 5-HT6 receptors (Homo sapiens, UniProt P50406); assay: 5-HT6 binding affinity, [3H]-LSD displacement; details: membranes of Hela cells expressing human cloned 5-HT6 receptors; [3H]-LSD 3.0 nM; 120 minutes at room temperature
T1 construct: expressed in transfected cells; host or cells: HeLa cells
T1 sequence (P50406 whole entry): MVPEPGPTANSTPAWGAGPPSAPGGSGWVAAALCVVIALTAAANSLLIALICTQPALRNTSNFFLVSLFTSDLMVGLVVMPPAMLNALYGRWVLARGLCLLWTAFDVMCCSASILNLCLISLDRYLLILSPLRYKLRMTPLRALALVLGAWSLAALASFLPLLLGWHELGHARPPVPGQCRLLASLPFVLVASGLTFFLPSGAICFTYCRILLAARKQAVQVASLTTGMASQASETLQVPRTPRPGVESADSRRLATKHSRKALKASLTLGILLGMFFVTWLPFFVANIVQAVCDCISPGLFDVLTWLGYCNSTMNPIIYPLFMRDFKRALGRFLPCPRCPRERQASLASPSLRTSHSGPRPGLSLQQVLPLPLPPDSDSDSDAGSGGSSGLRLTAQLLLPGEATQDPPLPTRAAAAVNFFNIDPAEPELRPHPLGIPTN

SMILES | melting point | Ki [1]
CC(C)NCCCCc1ccc2[nH]nc(S(=O)(=O)c3cccc4ccccc34)c2c1 [Example 192] | 145 to 150 °C | 0.01 to 10 nM
CCN(C)CCCc1ccc2[nH]nc(S(=O)(=O)c3cccc4ccccc34)c2c1 [Example 186] | 205 to 207 °C | 0.01 to 10 nM
CC(C)NCCCc1ccc2[nH]nc(S(=O)(=O)c3cccc4ccccc34)c2c1 [Example 185] | 160 to 163 °C | 0.01 to 10 nM
CNCCc1ccc2[nH]nc(S(=O)(=O)c3ccccc3)c2c1 [Example 175, N-Methyl-N-{2-[3-(phenylsulfonyl)-1H-indazol-5-yl]ethyl}amine] | 186 to 188 °C | 0.01 to 10 nM
Cl.NCCc1cccc2c(S(=O)(=O)c3ccccc3)n[nH]c12 [Example 174, {2-[3-(Phenylsulfonyl)-1H-indazol-7-yl]ethyl}amine Hydrochloride] | 157 to 160 °C | 0.01 to 10 nM
CCN(C)CCCCc1ccc2[nH]nc(S(=O)(=O)c3cccc4ccccc34)c2c1 [Example 193] | 195 to 198 °C | 0.01 to 10 nM
CNCCCc1ccc2[nH]nc(S(=O)(=O)c3cccc4ccccc34)c2c1 [Example 183] | 155 to 160 °C | 0.01 to 10 nM
CN(C)CCCCc1ccc2[nH]nc(S(=O)(=O)c3cccc4ccccc34)c2c1 [Example 190] | 232 to 233 °C | 0.01 to 10 nM
O=S(=O)(c1cccc2ccccc12)c1n[nH]c2ccc(CCCCN3CCCC3)cc12 [Example 194] | 238 to 240 °C | 11 to 25 nM
O=S(=O)(c1cccc2ccccc12)c1n[nH]c2ccc(CCCN3CCCC3)cc12 [Example 187] | 135 to 138 °C | 0.01 to 10 nM
NCCCc1ccc2[nH]nc(S(=O)(=O)c3cccc4ccccc34)c2c1 [Example 188, {3-[3-(Naphthylylsulfonyl)-1H-indazol-5-yl]propyl}amine] | 92 to 94 °C | 0.01 to 10 nM
CC(c1ccc2[nH]nc(S(=O)(=O)c3cccc4ccccc34)c2c1)N1CCN(C)CC1 (centres unmarked) [Example 203, 5-[1-(4-Methylpiperazin-1-yl)ethyl]-3-(1-naphthylsulfonyl)-1H-indazole] | 183 to 185 °C | 0.01 to 10 nM
CCNCCCCc1ccc2[nH]nc(S(=O)(=O)c3cccc4ccccc34)c2c1 [Example 191] | 140 to 145 °C | 0.01 to 10 nM
